# Source: paper PMC8399847, “Hybrid Quinolinyl Phosphonates as Heterocyclic Carboxylate Isosteres: Synthesis and Biological Evaluation against Topoisomerase 1B (TOP1B)” (Pharmaceuticals, 2021)
# Tests used:
# [1] = test system: A549 (human lung adenocarcinoma cells); experiment: CCK-8 cytotoxicity assay, A549; type: cell-based; settings: A549, 48 h, read-out: Cytotoxicity IC50 Lung A549
# Method: (§1) The cytotoxicity of the newly synthesized quinolinylphosphonates 7 was evaluated in vitro by testing their antiproliferative activities against several human cancer cell lines: A549 (human lung adenocarcinoma cells), SKOV3 (human ovarian carcinoma), and HEK293 (human embryonic kidney). In order to analyze the selective cytotoxicity facing exclusively cancerous cell lines, cytotoxicity against non-cancerous cell lines (MRC-5, lung fibroblast cells) was also evaluated. Cell counting kit (CCK-8) assay was employed to assess growth inhibition and, cell proliferation inhibitory activities of compounds that are listed in Table 1 as IC50 values. […] According to the data presented in Table 1, in general, all these phosphorated derivatives present higher selective cytotoxicity in the A549 cell line than in the other two cell lines, SKOV3 and HEK293, although slight differences are observed compared to human ovarian carcinoma (SKOV3).
# (§2) Cells were cultured according to the supplier’s instructions, A549 (ATCC® CCL-185), SKOV3 (ATCC® HTB-77), HEK293 (CLS GmbH), MRC-5 (ATCC® CCL-171™). Cells were seeded in 96-well plates at a density of 2–2.5 × 10^3 cells per well and incubated overnight in 0.1 mL of media supplied with 10% Fetal Bovine Serum (Lonza, Basel, Switzerland) in a 5% CO2 incubator at 37 °C. On day 2, drugs (concentration between 0.5–50 μM) were added and samples were incubated for 48 h. After treatment, 10 μL of cell counting kit-8 was added to each well for an additional 2 h incubation at 37 °C. The absorbance of each well was determined by an Automatic Elisa Reader System at 450 nm wavelength. CPT was purchased from Sigma-Aldrich and used as a positive control.
# [2] = test system: leishmanial TOP1B (LTOP1B); experiment: LTOP1B relaxation activity assay; type: biochemical, Leishmania; settings: 100 µM of compound, 1 min
# Method: The inhibition of relaxation activity of LTOP1B by the compounds was tested at 100 µM. The reactions were performed for 1 min in the way described in the experimental protocols section. The percentage of inhibition was calculated by measuring the intensity of the band corresponding to the supercoiled DNA when the different DNA topoisomers were separated in an agarose gel.
# Purification of leishmanial DNA topoisomerase 1B (LTOP1B) was carried out as reported previously. Shortly, LTOP1B was purified using the deficient in TOP1 activity yeast strain, EKY3 MAT α ura3–52 his3Δ20ting, from the union of the bicistronic expression vector pESC-URA to both subunits of LTOP1B. The yeast cells were grown in a yeast synthetic drop-out medium without uracil (Sigma) supplemented with 2% raffinose (w/v) to OD600: 0.8–1 and induced for 10 h with 2% galactose (w/v). After that, the cells were harvested, washed with cold TEEG buffer (50 mM Tris–HCl pH 7.4, 1 mM EDTA, 1 mM EGTA, 10% glycerol), resuspended in 15 mL of 1× TEEG buffer supplemented with 0.2 M KCl and a protease inhibitors cocktail (Thermo Scientific, Waltham, MA, USA) and lysed. Protein extract obtained was loaded on a 5 mL Heparin Sepharose column (GE Healthcare, MA, USA). LTOP1B enzyme was eluted at 4 °C with a discontinuous gradient of KCl (0.2, 0.4, 0.6 M) in TEEG buffer.
# Leishmanial TOP1B activity was tested by the relaxation of supercoiled plasmid DNA assay. Each reaction contained: one unit of purified LTOP1B enzyme, 100 µM of each compound, 0.5 μg of supercoiled pSK DNA, 10 mM Tris-HCl buffer pH 7.5, 5 mM MgCl2, 0.1 mM EDTA, 15 µg/mL bovine serum albumin, and 150 mM KCl. The final volume of each reaction was 20 µL. Reaction mixtures were incubated for 1 min at 37 °C and stopped by the addition of a 4 µL loading buffer (5% sarkosyl, 0.12% bromophenol blue, 25% glycerol). The DNA topoisomers were resolved in 1% agarose gels by electrophoresis in 0.1 M Tris borate EDTA buffer (pH 8.0) at 2 V/cm for 16 h and visualized with UV illumination after ethidium bromide (0.5 μg/mL) staining. The percentage of inhibition was calculated by measuring the intensity of the band corresponding to the supercoiled DNA after separating and staining the different DNA topoisomers. This analysis was performed using the GeneTools from Syngene software (Version 4.3.8, MD, USA).
# [3] = test system: HEK293 (human embryonic kidney); experiment: CCK-8 cytotoxicity assay, HEK293; type: cell-based; settings: HEK293, 48 h, CCK-8, 50% growth inhibition
# Method: as §1, §2
# [4] = test system: L. infantum promastigotes; experiment: In vitro iRFP-L. infantum promastigotes viability assay; type: cell-based; settings: Leishmania infantum; 96 h exposure, EC50 ± SD
# Method: The effect of the new quinolinylphosphonate derivatives 7 synthesized was assessed on both free-living promastigotes and intramacrophage amastigotes of L. infantum as it is described in experimental protocols. Primary cultures of intramacrophage amastigotes were obtained from splenic explants from 6-weeks infected Balb/c mice with L. infantum-iRFP promastigotes. The infrared fluorescence emitted by both stage forms of the parasite was used as viability criterium, using 0.5% DMSO as negative control (100% viability) and […] AMB as a positive control (0% viability).
# A genetically modified strain of L infantum BCN 150, expressing iRFP protein from Rhodopseudomonas palustris bacteriophytochrome (iRFP-L. infantum), was used to obtain the EC50 values of the different compounds against promastigotes, through the detection of the near-infrared radiation emitted by living parasites exposed to tested molecules. Thus, the viability of promastigotes was calculated after recording their fluorescence at 708 nm in an Odyssey (Li-Cor, NE, USA) infrared imaging.
# iRFP-L. infantum promastigotes were cultured using M199 medium (Gibco, Thermo Fisher Scientific, MA, USA), supplemented with 25 mM 4-(2-hydroxyethyl)-1-piperazineethanesulfonic acid (HEPES) pH 6.9, […] hemin, 10 mM glutamine, 0.1 mM adenosine, 0.01 mM folic acid, 1× RPMI 1640 vitamin mix (Sigma, Darmstadt, Germany), 10% (v/v) heat-inactivated foetal bovine serum (Gibco, Thermo Fisher Scientific, MA, USA), 50 U/mL penicillin and 50 µg/mL streptomycin. The assay was carried out, seeding 1 × 10^6 cells/mL of iRFP-L. infantum promastigotes into 96-well optical bottom black plates (Thermo Scientific, MA, USA) along with different concentrations of compound to each well. The final concentration of DMSO, the solvent used to prepare the stock solutions of compounds, was never higher than 0.1%. All of the compounds’ concentrations and controls were assayed by triplicate.
Structure (SMILES),IC50 [1] [µM],LTOP1B Inhibition [2] [%],IC50 [3] [µM],EC50 [4] [µM]
"CCOP(=O)(OCC)c1cccc2c(-c3ccccc3)cc(-c3ccccc3)nc12 [7a, Diethyl (2,4-diphenylquinolin-8-yl)phosphonate]",2.26 ± 0.59,58.87,27.3 ± 2.22,0.91 ± 0.04
"CCOP(=O)(OCC)c1cccc2c(-c3ccccc3)cc(-c3ccc(F)cc3)nc12 [7b, Diethyl (4-Phenyl-2-(fluorophenyl)quinolin-8-il) phosphonate]",2.16 ± 0.29,24.43,43 ± 4.65,7.63 ± 0.76
"CCOP(=O)(OCC)c1cccc2c(-c3ccccc3)cc(-c3ccc(OC)cc3)nc12 [7c, Diethyl (2-(4-methoxyphenyl)-4-phenylquinolin-8-yl)phosphonate]",12.6 ± 1.3,45.45,38.3 ± 8.9,9.46 ± 1.67
"CCOP(=O)(OCC)c1cccc2c(-c3ccccc3)cc(-c3ccccc3OC)nc12 [7d, Diethyl (2-(2-methoxyphenyl)-4-phenylquinolin-8-yl)phosphonate]",12.3 ± 4.1,46.41,> 50,11.4 ± 0.62
"CCOP(=O)(OCC)c1cccc2c(-c3ccccc3)cc(-c3ccc4ccccc4c3)nc12 [7e, Diethyl (2-(naphthalen-2-yl)-4-phenylquinolin-8-yl)phosphonate]",3.18 ± 0.27,18.36,48.1 ± 6.39,20.4 ± 1.57
"CCOP(=O)(OCC)c1cccc2c(-c3ccccc3)cc(-c3cccc4ccccc34)nc12 [7f, Diethyl (2-(naphthalen-1-yl)-4-phenylquinolin-8-yl)phosphonate]",2.66 ± 0.16,7.5,35.7 ± 3.13,20.6 ± 2.19
CCOP(=O)(OCC)c1cccc2c(-c3ccc(F)cc3)cc(-c3ccccc3)nc12 [7g],2.27 ± 0.32,16.49,24.4 ± 3.46,16.1 ± 1.94
"CCOP(=O)(OCC)c1cccc2c(-c3ccc(F)cc3)cc(-c3ccc(F)cc3)nc12 [7h, Diethyl (2,4-bis(4-fluorophenyl)quinolin-8-yl)phosphonate]",3.07 ± 0.22,22.44,15.7 ± 1.74,8.43 ± 0.92
"CCOP(=O)(OCC)c1cccc2c(-c3ccc(F)cc3)cc(-c3ccc(F)c(F)c3)nc12 [7i, Diethyl (2-(3,4-difluorophenyl)-4-(4-fluorophenyl)quinolin-8-yl)phosphonate]",4.64 ± 0.3,54.01,> 50,6.35 ± 0.16
"CCOP(=O)(OCC)c1cccc2c(-c3ccc(C)cc3)cc(-c3ccc(F)cc3)nc12 [7j, Diethyl (2-(4-fluorophenyl)-4-(p-tolyl)quinolin-8-yl)phosphonate]",0.83 ± 0.01,41.21,> 50,7.29 ± 0.94
"CCOP(=O)(OCC)c1cccc2c(-c3ccc(C)cc3)cc(-c3ccc(F)c(F)c3)nc12 [7k, Diethyl (2-(3,4-difluorophenyl)-4-(p-tolyl)quinolin-8-yl)phosphonate]",2.72 ± 0.37,77.02,22.3 ± 1.36,2.59 ± 0.48
"CC(C)OP(=O)(OC(C)C)c1cccc2c(-c3ccccc3)cc(-c3ccc(F)cc3)nc12 [7l, Diisopropyl (2-(4-fluorophenyl)-4-phenylquinolin-8-yl)phosphonate]",5.01 ± 2.7,3.55,10.1 ± 1.26,9.57 ± 0.4
"CC(C)OP(=O)(OC(C)C)c1cccc2c(-c3ccccc3)cc(-c3ccc(F)c(F)c3)nc12 [7m, Diisopropyl (2-(3,4-difluorophenyl)-4-phenylquinolin-8-yl)phosphonate]",18.4 ± 1.4,5.41,> 50,11.2 ± 0.74
"CC(C)OP(=O)(OC(C)C)c1cccc2c(-c3ccc(F)cc3)cc(-c3ccc(F)cc3)nc12 [7n, Diisopropyl (2,4-bis(4-fluorophenyl)quinolin-8-yl)phosphonate]",10.6 ± 1.73,43.31,15 ± 0.99,4.86 ± 0.5
"CC(C)OP(=O)(OC(C)C)c1cccc2c(-c3ccc(F)cc3)cc(-c3ccc(F)c(F)c3)nc12 [7o, Diisopropyl (2-(3,4-difluorophenyl)-4-(4-fluorophenyl)quinolin-8-yl)phosphonate]",6.79 ± 3.87,73.27,21 ± 4.05,19.3 ± 1.79
"Cc1ccc(-c2cc(-c3ccc(F)cc3)nc3c(P(=O)(OC(C)C)OC(C)C)cccc23)cc1 [7p, Diisopropyl (2-(4-fluorophenyl)-4-(p-tolyl)quinolin-8-yl)phosphonate]",6.84 ± 1.74,41.62,14.4 ± 1.69,5.01 ± 0.35
"Cc1ccc(-c2cc(-c3ccc(F)c(F)c3)nc3c(P(=O)(OC(C)C)OC(C)C)cccc23)cc1 [7q, Diisopropyl (2-(3,4-difluorophenyl)-4-(p-tolyl)quinolin-8-yl)phosphonate]",8.24 ± 2.42,52.65,12.3 ± 0.71,7.46 ± 0.76
